{"source": "PubChem BioAssay (NCI)", "assay_in_all_cases": "NCI anticancer screen, dose series, 48 h", "key": {"[1]": {"tested_on": "786-0 renal"}, "[2]": {"tested_on": "A498 renal"}, "[3]": {"tested_on": "A549 NSCLC"}, "[4]": {"tested_on": "ACHN renal"}, "[5]": {"tested_on": "BT-549 breast"}, "[6]": {"tested_on": "CAKI-1 renal"}, "[7]": {"tested_on": "COLO 205 colon"}, "[8]": {"tested_on": "DU-145 prostate"}, "[9]": {"tested_on": "EKVX NSCLC"}, "[10]": {"tested_on": "HCC-2998 colon"}, "[11]": {"tested_on": "HCT-116 colon"}, "[12]": {"tested_on": "HCT-15 colon"}, "[13]": {"tested_on": "HOP-62 NSCLC"}, "[14]": {"tested_on": "HS 578T breast"}, "[15]": {"tested_on": "HT29 colon"}, "[16]": {"tested_on": "IGROV1 ovarian"}, "[17]": {"tested_on": "K-562 leukemia"}, "[18]": {"tested_on": "KM12 colon"}, "[19]": {"tested_on": "LOX IMVI melanoma"}, "[20]": {"tested_on": "M14 melanoma"}, "[21]": {"tested_on": "MALME-3M melanoma"}, "[22]": {"tested_on": "MCF7 breast"}, "[23]": {"tested_on": "MDA-MB-231 breast"}, "[24]": {"tested_on": "MDA-MB-435"}, "[25]": {"tested_on": "MOLT-4 leukemia"}, "[26]": {"tested_on": "NCI-H226 lung"}, "[27]": {"tested_on": "NCI-H23 lung"}, "[28]": {"tested_on": "NCI-H460 lung"}, "[29]": {"tested_on": "NCI-H522 lung"}, "[30]": {"tested_on": "NCI/ADR-RES ovarian"}, "[31]": {"tested_on": "OVCAR-3 ovarian"}, "[32]": {"tested_on": "OVCAR-4 ovarian"}, "[33]": {"tested_on": "OVCAR-5 ovarian"}, "[34]": {"tested_on": "OVCAR-8 ovarian"}, "[35]": {"tested_on": "PC-3 prostate"}, "[36]": {"tested_on": "SF-268 CNS"}, "[37]": {"tested_on": "SF-295 CNS"}, "[38]": {"tested_on": "SF-539 CNS"}, "[39]": {"tested_on": "SK-MEL-2 melanoma"}, "[40]": {"tested_on": "SK-MEL-28 melanoma"}, "[41]": {"tested_on": "SK-MEL-5 melanoma"}, "[42]": {"tested_on": "SK-OV-3 ovarian"}, "[43]": {"tested_on": "SN12C renal"}, "[44]": {"tested_on": "SNB-19 CNS"}, "[45]": {"tested_on": "SNB-75 CNS"}, "[46]": {"tested_on": "SW-620 colon"}, "[47]": {"tested_on": "T-47D breast"}, "[48]": {"tested_on": "TK-10 renal"}, "[49]": {"tested_on": "U251 CNS"}, "[50]": {"tested_on": "UACC-257 melanoma"}, "[51]": {"tested_on": "UACC-62 melanoma"}, "[52]": {"tested_on": "UO-31 renal"}}, "note": "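Method: 48-hour compound exposure of cells in 96-well plates, five concentrations, linear interpolation of endpoints. GI50: concentration for 50% inhibition of growth. TGI denotes the concentration required for complete inhibition of growth.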", "data": [{"smiles": "CNC(=O)C(CCc1ccccc1)NC(=O)C(CC(=O)NO)CC(C)C", "note": "(centres undefined)", "values": [{"measurement": "GI50", "setting": "[1]", "value": "> 25", "unit": "µM"}, {"measurement": "TGI", "setting": "[1]", "value": "> 25", "unit": "µM"}, {"measurement": "GI50", "setting": "[2]", "value": "> 25", "unit": "µM"}, {"measurement": "TGI", "setting": "[2]", "value": "> 25", "unit": "µM"}, {"measurement": "GI50", "setting": "[3]", "value": "> 25", "unit": "µM"}, {"measurement": "TGI", "setting": "[3]", "value": "> 25", "unit": "µM"}, {"measurement": "GI50", "setting": "[4]", "value": "> 25", "unit": "µM"}, {"measurement": "TGI", "setting": "[4]", "value": "> 25", "unit": "µM"}, {"measurement": "GI50", "setting": "[5]", "value": "> 25", "unit": "µM"}, {"measurement": "TGI", "setting": "[5]", "value": "> 25", "unit": "µM"}, {"measurement": "GI50", "setting": "[6]", "value": "> 25", "unit": "µM"}, {"measurement": "TGI", "setting": "[6]", "value": "> 25", "unit": "µM"}, {"measurement": "GI50", "setting": "[7]", "value": "> 25", "unit": "µM"}, {"measurement": "TGI", "setting": "[7]", "value": "> 25", "unit": "µM"}, {"measurement": "GI50", "setting": "[8]", "value": "> 25", "unit": "µM"}, {"measurement": "TGI", "setting": "[8]", "value": "> 25", "unit": "µM"}, {"measurement": "GI50", "setting": "[9]", "value": 8.31, "unit": "µM"}, {"measurement": "TGI", "setting": "[9]", "value": "> 25", "unit": "µM"}, {"measurement": "GI50", "setting": "[10]", "value": "> 25", "unit": "µM"}, {"measurement": "TGI", "setting": "[10]", "value": "> 25", "unit": "µM"}, {"measurement": "GI50", "setting": "[11]", "value": "> 25", "unit": "µM"}, {"measurement": "TGI", "setting": "[11]", "value": "> 25", "unit": "µM"}, {"measurement": "GI50", "setting": "[12]", "value": "> 25", "unit": "µM"}, {"measurement": "TGI", "setting": "[12]", "value": "> 25", "unit": "µM"}, {"measurement": "GI50", "setting": "[13]", "value": "> 25", "unit": "µM"}, {"measurement": "TGI", "setting": "[13]", "value": "> 25", "unit": "µM"}, {"measurement": "GI50", "setting": "[14]", "value": "> 25", "unit": "µM"}, {"measurement": "TGI", "setting": "[14]", "value": "> 25", "unit": "µM"}, {"measurement": "GI50", "setting": "[15]", "value": "> 25", "unit": "µM"}, {"measurement": "TGI", "setting": "[15]", "value": "> 25", "unit": "µM"}, {"measurement": "GI50", "setting": "[16]", "value": "> 25", "unit": "µM"}, {"measurement": "TGI", "setting": "[16]", "value": "> 25", "unit": "µM"}, {"measurement": "GI50", "setting": "[17]", "value": 19.6, "unit": "µM"}, {"measurement": "TGI", "setting": "[17]", "value": "> 25", "unit": "µM"}, {"measurement": "GI50", "setting": "[18]", "value": "> 25", "unit": "µM"}, {"measurement": "TGI", "setting": "[18]", "value": "> 25", "unit": "µM"}, {"measurement": "GI50", "setting": "[19]", "value": "> 25", "unit": "µM"}, {"measurement": "TGI", "setting": "[19]", "value": "> 25", "unit": "µM"}, {"measurement": "GI50", "setting": "[20]", "value": "> 25", "unit": "µM"}, {"measurement": "TGI", "setting": "[20]", "value": "> 25", "unit": "µM"}, {"measurement": "GI50", "setting": "[21]", "value": "> 25", "unit": "µM"}, {"measurement": "TGI", "setting": "[21]", "value": "> 25", "unit": "µM"}, {"measurement": "GI50", "setting": "[22]", "value": "> 25", "unit": "µM"}, {"measurement": "TGI", "setting": "[22]", "value": "> 25", "unit": "µM"}, {"measurement": "GI50", "setting": "[23]", "value": "> 25", "unit": "µM"}, {"measurement": "TGI", "setting": "[23]", "value": "> 25", "unit": "µM"}, {"measurement": "GI50", "setting": "[24]", "value": "> 25", "unit": "µM"}, {"measurement": "TGI", "setting": "[24]", "value": "> 25", "unit": "µM"}, {"measurement": "GI50", "setting": "[25]", "value": "> 25", "unit": "µM"}, {"measurement": "TGI", "setting": "[25]", "value": "> 25", "unit": "µM"}, {"measurement": "GI50", "setting": "[26]", "value": "> 25", "unit": "µM"}, {"measurement": "TGI", "setting": "[26]", "value": "> 25", "unit": "µM"}, {"measurement": "GI50", "setting": "[27]", "value": "> 25", "unit": "µM"}, {"measurement": "TGI", "setting": "[27]", "value": "> 25", "unit": "µM"}, {"measurement": "GI50", "setting": "[28]", "value": "> 25", "unit": "µM"}, {"measurement": "TGI", "setting": "[28]", "value": "> 25", "unit": "µM"}, {"measurement": "GI50", "setting": "[29]", "value": "> 25", "unit": "µM"}, {"measurement": "TGI", "setting": "[29]", "value": "> 25", "unit": "µM"}, {"measurement": "GI50", "setting": "[30]", "value": "> 25", "unit": "µM"}, {"measurement": "TGI", "setting": "[30]", "value": "> 25", "unit": "µM"}, {"measurement": "GI50", "setting": "[31]", "value": "> 25", "unit": "µM"}, {"measurement": "TGI", "setting": "[31]", "value": "> 25", "unit": "µM"}, {"measurement": "GI50", "setting": "[32]", "value": "> 25", "unit": "µM"}, {"measurement": "TGI", "setting": "[32]", "value": "> 25", "unit": "µM"}, {"measurement": "GI50", "setting": "[33]", "value": "> 25", "unit": "µM"}, {"measurement": "TGI", "setting": "[33]", "value": "> 25", "unit": "µM"}, {"measurement": "GI50", "setting": "[34]", "value": "> 25", "unit": "µM"}, {"measurement": "TGI", "setting": "[34]", "value": "> 25", "unit": "µM"}, {"measurement": "GI50", "setting": "[35]", "value": "> 25", "unit": "µM"}, {"measurement": "TGI", "setting": "[35]", "value": "> 25", "unit": "µM"}, {"measurement": "GI50", "setting": "[36]", "value": "> 25", "unit": "µM"}, {"measurement": "TGI", "setting": "[36]", "value": "> 25", "unit": "µM"}, {"measurement": "GI50", "setting": "[37]", "value": "> 25", "unit": "µM"}, {"measurement": "TGI", "setting": "[37]", "value": "> 25", "unit": "µM"}, {"measurement": "GI50", "setting": "[38]", "value": "> 25", "unit": "µM"}, {"measurement": "TGI", "setting": "[38]", "value": "> 25", "unit": "µM"}, {"measurement": "GI50", "setting": "[39]", "value": "> 25", "unit": "µM"}, {"measurement": "TGI", "setting": "[39]", "value": "> 25", "unit": "µM"}, {"measurement": "GI50", "setting": "[40]", "value": "> 25", "unit": "µM"}, {"measurement": "TGI", "setting": "[40]", "value": "> 25", "unit": "µM"}, {"measurement": "GI50", "setting": "[41]", "value": "> 25", "unit": "µM"}, {"measurement": "TGI", "setting": "[41]", "value": "> 25", "unit": "µM"}, {"measurement": "GI50", "setting": "[42]", "value": "> 25", "unit": "µM"}, {"measurement": "TGI", "setting": "[42]", "value": "> 25", "unit": "µM"}, {"measurement": "GI50", "setting": "[43]", "value": "> 25", "unit": "µM"}, {"measurement": "TGI", "setting": "[43]", "value": "> 25", "unit": "µM"}, {"measurement": "GI50", "setting": "[44]", "value": "> 25", "unit": "µM"}, {"measurement": "TGI", "setting": "[44]", "value": "> 25", "unit": "µM"}, {"measurement": "GI50", "setting": "[45]", "value": "> 25", "unit": "µM"}, {"measurement": "TGI", "setting": "[45]", "value": "> 25", "unit": "µM"}, {"measurement": "GI50", "setting": "[46]", "value": "> 25", "unit": "µM"}, {"measurement": "TGI", "setting": "[46]", "value": "> 25", "unit": "µM"}, {"measurement": "GI50", "setting": "[47]", "value": "> 25", "unit": "µM"}, {"measurement": "TGI", "setting": "[47]", "value": "> 25", "unit": "µM"}, {"measurement": "GI50", "setting": "[48]", "value": "> 25", "unit": "µM"}, {"measurement": "TGI", "setting": "[48]", "value": "> 25", "unit": "µM"}, {"measurement": "GI50", "setting": "[49]", "value": "> 25", "unit": "µM"}, {"measurement": "TGI", "setting": "[49]", "value": "> 25", "unit": "µM"}, {"measurement": "GI50", "setting": "[50]", "value": "> 25", "unit": "µM"}, {"measurement": "TGI", "setting": "[50]", "value": "> 25", "unit": "µM"}, {"measurement": "GI50", "setting": "[51]", "value": "> 25", "unit": "µM"}, {"measurement": "TGI", "setting": "[51]", "value": "> 25", "unit": "µM"}, {"measurement": "GI50", "setting": "[52]", "value": "> 25", "unit": "µM"}, {"measurement": "TGI", "setting": "[52]", "value": "> 25", "unit": "µM"}]}]}
